Where a name gives a salt, the structure may show the parent alone.
Test system: not given
Assay: not given
Conditions: not given
`O=c1[nH]ccc2c1ccc1[nH]cc(CCN(Cc3ccccc3)Cc3ccccc3)c12` (as salt: HCl) showed a melting point of 250 to 253 °C.
Molecule `CCn1ccc2c(ccc3[nH]cc(CCN)c32)c1=O` (as salt: hydrochloride) has a melting point of 224 to 227 °C.
Work on `NCCc1c[nH]c2ccc3c(=O)n(CCc4ccccc4)ccc3c12` (as salt: hydrochloride) yielded a melting point of 162 to 166 °C.
`Cn1cnc2c(ccc3[nH]cc(CCN)c32)c1=O` showed a melting point of 279 to 285 °C.
In the case of `NCCc1c[nH]c2ccc3c(=O)[nH]ccc3c12` (as salt: hydrochloride), the melting point is reported as > 280 °C.
Molecule `CNCCc1c[nH]c2ccc3c(=O)[nH]ccc3c12` (as salt: HCl) [Example 1021, 1-(2-methylaminoethyl)-3H,7H-pyrrolo[3,2-f]isoquinolin-6-one] has a melting point of 160 °C.
`Cn1ccc2c(ccc3[nH]cc(CCNCCc4ccccc4)c32)c1=O` (as salt: HCl) [Example 95, 7-methyl-1-(2-phenethylaminoethyl)-3H,7H-pyrrolo[3,2-f]isoquinolin-6-one] gave a melting point of 205 to 208 °C.
With `O=c1[nH]ccc2c3c(ccc12)N=CC3CCNCc1ccccc1` (stereo not shown) (as salt: HCl) [Example 7A, 1-(2-Benzylaminoethyl)-6,7-dihydro-1H-pyrrolo[3,2-f]isoquinolin-6-one] the melting point was 210 °C.
For `NCCc1c[nH]c2ccc3c(=O)n(Cc4ccccc4)cnc3c12` [Example 1029], the melting point was 302 to 305 °C.
For `NCCc1c[nH]c2ccc3c(=O)n(Cc4ccccc4F)ccc3c12` (as salt: hydrochloride), the melting point was > 250 °C.
`NCCc1c[nH]c2ccc3c(=O)n(CC4CCCCC4)ccc3c12` (as salt: hydrochloride) [Example 269, 1-(2-aminoethyl)-7-cyclohexylmethyl-3H,7H-pyrrolo[3,2-]isoquinolin-6-one] gave a melting point of 220 to 224 °C.
In the case of `NCCc1c(-c2ccc(Cl)cc2)[nH]c2ccc3c(=O)[nH]ccc3c12` (as salt: hydrochloride) [Example 278, 1-(2-aminoethyl)-2-(4-chlorophenyl)-3H,7H-pyrrolo[3,2-f]isoquinolin-6-one], the melting point is reported as > 300 °C.
For `NCCc1c[nH]c2ccc3c(=O)n(Cc4ccccc4)ccc3c12` (as salt: hydrochloride) [Example 182], the melting point was 266 to 268 °C.
With `Cn1ccc2c(ccc3[nH]cc(CCN)c32)c1=O` (as salt: hydrochloride) [Example 94] the melting point was 295 to 298 °C.
With `O=c1c2ccc3c(c(CCN(Cc4ccccc4)Cc4ccccc4)cn3Cc3ccccc3)c2ccn1Cc1ccccc1` (as salt: HCl) [Example 1018, 3,7-dibenzyl-1-(2-dibenzylaminoethyl)-3H,7H-pyrrolo[3,2-f]isoquinolin-6-one] the melting point was 234 to 236 °C.
Work on `O=c1c2ccc3[nH]cc(CCNS(=O)(=O)c4ccccc4)c3c2ccn1Cc1ccccc1` [Example 1022, N-[2-(7-benzyl-6-oxo-6,7-dihydro-3H-pyrrolo[3,2-f]isoquinolin-1-yl)-ethyl]-benzenesulfonamide] yielded a melting point of 205 to 206 °C.
`NCCCc1c[nH]c2ccc3c(=O)[nH]ccc3c12` (as salt: hydrochloride) [Example 268, 1-(3-aminopropyl)-3H,7H-pyrrolo[3,2-f]isoquinolin-6-one] gave a melting point of 225 to 230 °C.
Molecule `CN(CCc1c[nH]c2ccc3c(=O)[nH]ccc3c12)Cc1ccccc1` (as salt: hydrochloride) has a melting point of 152 to 155 °C.
For `NCCc1c[nH]c2ccc3c(=O)n(Cc4ccc(F)cc4)ccc3c12` (as salt: hydrochloride), the melting point was 247 to 249 °C.
For `NCCc1c(Br)[nH]c2ccc3c(=O)[nH]ccc3c12` (as salt: HBr), the melting point was 252 °C (dec.).
Molecule `NCCc1c[nH]c2ccc3c(=O)n(CC4CCCCO4)ccc3c12` (stereo not shown) (as salt: hydrochloride) has a melting point of 260 to 262 °C.

Biological target: T1, human cloned 5-HT6 receptors (Homo sapiens, UniProt P50406)
T1 construct: expressed in transfected cells; host or cells: HeLa cells (membrane preparation)
T1 sequence (P50406 whole entry): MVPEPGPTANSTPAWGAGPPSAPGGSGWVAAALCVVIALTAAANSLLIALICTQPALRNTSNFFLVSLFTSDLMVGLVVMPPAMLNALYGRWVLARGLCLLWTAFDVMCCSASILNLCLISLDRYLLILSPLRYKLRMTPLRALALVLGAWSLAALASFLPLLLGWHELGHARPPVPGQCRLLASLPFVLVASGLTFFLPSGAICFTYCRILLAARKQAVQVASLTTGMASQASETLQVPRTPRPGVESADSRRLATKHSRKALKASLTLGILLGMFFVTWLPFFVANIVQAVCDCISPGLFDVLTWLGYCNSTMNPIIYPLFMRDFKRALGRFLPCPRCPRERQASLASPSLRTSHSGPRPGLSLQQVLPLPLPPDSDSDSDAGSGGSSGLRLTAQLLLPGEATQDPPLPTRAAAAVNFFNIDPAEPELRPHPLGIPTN
Assay: Comparative evaluation of 5-HT6 binding affinity ([3H]-LSD displacement, Hela cell membranes)
Conditions: not given
Description: Comparative Evaluation of 5-HT6 Binding Affinity of Test Compounds
The affinity of test compounds for the 5-HT6 receptor is evaluated in the following manner. Cultured Hela cells expressing human cloned 5-HT6 receptors are harvested and centrifuged at low speed (1,000×g) for 10.0 min to remove the culture media. The harvested cells are suspended in half volume of fresh physiological phosphate buffered saline (PBS) solution and recentrifuged at the same speed. This operation is repeated. The collected cells are then homogenized in ten volumes of 50 mM Tris.HCl (pH 7.4) and 0.5 mM EDTA. The homogenate is centrifuged at 40,000×g for 30.0 min, and the precipitate is collected. The obtained pellet is resuspended in 10 volumes of Tris.HCl buffer and recentrifuged at the same speed. The final pellet is suspended in a small volume of Tris.HCl buffer, and the tissue protein content is determined in aliquots of 10-25 microliter volumes. Bovine Serum Albumin is used as the standard in the protein determination according to the method described in Lowry et al., J. Biol. Chem. 1951, 193, 265. The volume of the suspended cell membranes is adjusted to give a tissue protein concentration of 1.0 mg/ml of suspension. The prepared membrane suspension (10 times concentrated) is aliquoted in 1.0 ml volumes and stored at −70° C. until used in subsequent binding experiments.
The reaction is allowed to proceed in the dark for 120 min at room temperature, at which time, the bound ligand-receptor complex is filtered off on a 96-well unifilter with a Packard Filtermate® 196 Harvester. The bound complex caught on the filter disk is allowed to air dry, and the radioactivity is measured in a Packard TopCount® equipped with six photomultiplier detectors, after the addition of 40.0 micoliters Micorscint®-20 scintillant to each shallow well. The unifilter plate is heat-sealed and counted in a Packard TopCount® with a tritium efficiency of 31%.
Specific binding to eh 5-HT6 receptor is defined as the total radioactivity bound less the amount bound in the presence of […] unlabelled methiothipin. Binding in the presence of varying concentrations of test compound is expressed as a percentage of specific binding in the absence of test compound. The results are plotted as log % bound versus log concentration of the test compound. […] A linear regression is plotted, from which the IC50 value is determined, and the Ki value is determined based upon the following equation: Ki=IC50/(1+L/KD) where L is the concentration of the radioactive ligand used and KD is the dissociation constant of the ligand for the receptor, both expressed in nM.
`NCCc1c[nH]c2ccc3c(=O)n(Cc4ccccc4)ccc3c12` [Example 182] showed a Ki of 11 nM.
Molecule `NCCc1c[nH]c2ccc3c(=O)n(Cc4ccccc4)cnc3c12` [Example 1029] has a Ki of 32 nM.
Molecule `NCCc1c[nH]c2ccc3c(=O)n(CC4CCCCC4)ccc3c12` [Example 269, 1-(2-aminoethyl)-7-cyclohexylmethyl-3H,7H-pyrrolo[3,2-]isoquinolin-6-one] has a Ki of 13 nM.
Molecule `NCCc1c[nH]c2ccc3c(=O)n(Cc4ccsc4)ccc3c12` [Example 274, 1-(2-aminoethyl)-7-thiophen-3-ylmethyl-3H,7H-pyrrolo[3,2-f]isoquinolin-6-one] has a Ki of 11 nM.
Work on `Cn1ccc2c(ccc3[nH]cc(CCN)c32)c1=O` [Example 94] yielded a Ki of 18 nM.
Work on `CNCCc1c[nH]c2ccc3c(=O)[nH]ccc3c12` [Example 1021, 1-(2-methylaminoethyl)-3H,7H-pyrrolo[3,2-f]isoquinolin-6-one] yielded a Ki of 21 nM.

Same assay, conditions: [3H]-LSD displacement, membranes of Hela cells expressing human cloned 5-HT6 receptors; read-out: 5-HT6 binding Ki
In the case of `O=c1[nH]ccc2c3c(ccc12)N=CC3CCNCc1ccccc1` (stereo not shown) [Example 7A, 1-(2-Benzylaminoethyl)-6,7-dihydro-1H-pyrrolo[3,2-f]isoquinolin-6-one], the Ki is reported as 15 nM.

Source: patent US20070099911A1, “Pyrroloquinolinone derivatives as 5-hydroxytryptamine-6 ligands” (Wyeth, priority 2005, published 2007)
